We go through eight compounds from publication PMC5557466, “Precision medicine approaches to lung adenocarcinoma with concomitant MET and HER2 amplification” (BMC Cancer, 2017).

Common to all, as to type: cell-based, human
For one assay, the system named is 033 T PDX cells. As to the kind of experiment: In vitro drug sensitivity assay (ATPlite cell viability, 6 days, sphere culture). Conditions: for IC50: Homo sapiens, primary culture in serum-free sphere conditions; for effect on 033 T cell proliferation (in words): in vitro drug screen. As to the method: (§1) Primary cultures of PDX cells in the serum-free sphere culture conditions were seeded in 384-well plates, at 500 cells per well. Two hours after plating, cells were treated with a drug library in three-fold and 10-point serial dilutions (n = 3, for each condition). Cells were incubated for 6 days at 37 °C, in a 5% CO2 humidified incubator, and the cell viability was analyzed using an adenosine triphosphate monitoring system based on firefly luciferase (ATPlite 1step; PerkinElmer, Waltham, MA, USA). […] The drugs were stored and diluted according to the manufacturer’s instructions. The tested concentrations for each drug were empirically derived, in order to investigate a clinically relevant spectrum of drug activities. IC50 values were calculated as an average of triplicate experiments using S+ Chip Analyzer (Samsung Electro-Mechanics Company, Ltd., Suwon, Korea). In order to investigate the effects of the treatment with targeted agents, signal transduction assays were performed using primarily cultured NSCLC PDX cells, which were maintained overnight in serum-free sphere culture conditions, without growth factors, incubated for 1 h with each inhibitor, and pulsed with original culture medium supplemented with bFGF/EGF/NRG/IGF for 15 min.

For assay [1], the system named is 033 T cells. Description: Tumor sphere formation in 033 T cell cultures. As to the method: (§2) Xenograft tumor specimens were dissociated into single cells according to previously published protocol. Dissociated cells were cultured in Neurobasal medium-A, supplemented with N2 (×1/2; Life Technologies, Carlsbad, CA, USA), B27 (×1/2; GIBCO), basic fibroblast growth factor (bFGF; 25 ng/mL; R&D Systems, Minneapolis, MN, USA), EGF (25 ng/mL; R&D Systems, Minneapolis, MN, USA), neuregulin 1 (NRG; 10 ng/mL; R&D Systems, Minneapolis, MN, USA), and insulin-like growth factor 1 (IGF1; 100 ng/mL; R&D Systems, Minneapolis, MN, USA). Growth factors were supplemented every 3 days. When spheres appeared in the suspension culture, they were dissociated using StemPro Accutase (Life Technologies, Carlsbad, CA, USA), and reseeded in the suspension culture medium. Cells were grown in complete medium and treated with inhibitors 1 day after seeding. Five days later, the surviving cells were quantified by WST-1 staining (Roche Genentech, San Francisco, CA, USA).

Assay [2] relates to 033 T cells. As to the kind of experiment: Cell proliferation time course of 033 T cells (WST-1). Particulars: from day 5 onward. As to the method:
as §2

A further assay has as its system phosphorylation of MET. Description: Signal transduction assay, western blot. Particulars: 033 T cells. The method, then: as §1
In assay [3] the test system is phosphorylation of ERK1/2. Description: Signal transduction assay, western blot. Particulars: 033 T cells. The method, then:
(§3) Primary cultures of PDX cells in the serum-free sphere culture conditions were seeded in 384-well plates, at 500 cells per well. Two hours after plating, cells were treated with a drug library in three-fold and 10-point serial dilutions (n = 3, for each condition). Cells were incubated for 6 days at 37 °C, in a 5% CO2 humidified incubator, and the cell viability was analyzed using an adenosine triphosphate monitoring system based on firefly luciferase (ATPlite 1step; PerkinElmer, Waltham, MA, USA). The drug library was composed of 17 targeted agents that were included in the clinical guidelines or current clinical trials for the treatment of NSCLC (gefitinib, erlotinib, lapatinib, afatinib, neratinib, caneratinib, dacomitinib, infigratinib, vandetanib, sunitinib, imatinib, CI-1040, vemurafenib, palbociclib, crizotinib, sonidegib, buparlisib; all purchased from Selleckchem, Houston, TX, USA). The drugs were stored and diluted according to the manufacturer’s instructions. The tested concentrations for each drug were empirically derived, in order to investigate a clinically relevant spectrum of drug activities. IC50 values were calculated as an average of triplicate experiments using S+ Chip Analyzer (Samsung Electro-Mechanics Company, Ltd., Suwon, Korea). […]

For the next assay, the system named is phosphorylation of STAT3. Description: Signal transduction assay, western blot. Particulars: 033 T cells. The method, then:
as §3

Setting [4] is: resistant if IC50 > 1000 nmol/L.

As to `C#Cc1cccc(Nc2ncnc3cc(OCCOC)c(OCCOC)cc23)c1` [erlotinib], in the assay on 033 T PDX cells ([…]), the half-maximal inhibitory concentration (IC50) – broadly, the point on the concentration scale where inhibition reaches its midpoint – was found to be 836 nM.

In turn, `C[C@@H](Oc1cc(-c2cnn(C3CCNCC3)c2)cnc1N)c1c(Cl)ccc(F)c1Cl` [crizotinib] gave an IC50 with 033 T PDX cells (setting [4]) of 691 nM. Moreover, the tumor sphere formation entry in the assay with 033 T cells [1] is “impaired tumor sphere formation”. Moreover, the cell proliferation result with 033 T cells [2] is “significantly inhibited cell proliferation”. Moreover, the “phosphorylation of MET” value with phosphorylation of MET is given as “completely abolishing”. Further, the “phosphorylation of ERK1/2” value in assay [3] is reported as “completely abolishing”. In addition, the “phosphorylation of STAT3” value in the assay with phosphorylation of STAT3 is on record as “completely abolishing”.

In the assay with 033 T PDX cells (setting [4]), `CS(=O)(=O)CCNCc1ccc(-c2ccc3ncnc(Nc4ccc(OCc5cccc(F)c5)c(Cl)c4)c3c2)o1` [lapatinib] displayed a 50% inhibitory concentration (IC50) of 1560 nM.

`C=CC(=O)Nc1cc2c(Nc3ccc(F)c(Cl)c3)ncnc2cc1OCCCN1CCOCC1` [canertinib] displayed an IC50 with 033 T PDX cells (setting [4]) of 80 nM. In addition, in the assay on 033 T PDX cells, the “effect on 033 T cell proliferation (in words)” value (“effect” for short) is given as “effective”.

Regarding `Nc1cc(C(F)(F)F)c(-c2cc(N3CCOCC3)nc(N3CCOCC3)n2)cn1` [buparlisib], in the assay on 033 T PDX cells (setting [4]), half-maximal inhibition (IC50) required 507 nM.

In the assay with 033 T PDX cells (setting [4]), `CN(C)C/C=C/C(=O)Nc1cc2c(Nc3ccc(F)c(Cl)c3)ncnc2cc1O[C@H]1CCOC1` [afatinib] came in with a 50% inhibitory concentration (IC50) of 971 nM.

As to `COc1cc2ncnc(Nc3ccc(F)c(Cl)c3)c2cc1OCCCN1CCOCC1` [gefitinib], the “effect” value with 033 T PDX cells is given as “marked inhibitory effects”.

Compound `CCOc1cc2ncc(C#N)c(Nc3ccc(OCc4ccccn4)c(Cl)c3)c2cc1NC(=O)/C=C/CN(C)C` [neratinib] came in with an IC50 in the assay with 033 T PDX cells ([…]) of 133 nM. Also, the “effect” value with 033 T PDX cells was “marked inhibitory effects”.
